From paper PMC10674780, “In Vitro and In Vivo Effects of Synthesis Novel Phenoxyacetamide Derivatives as Potent Apoptotic Inducer against HepG2 Cells through PARP-1 Inhibition” (Pharmaceuticals, 2023)

Target: T1, PARP-1 (Homo sapiens, UniProt P09874)
T1 construct: gene PARP1
Experiment: PARP-1 inhibition assay kit (Cat No. […])
Format: biochemical

T1 sequence (P09874 2-1014): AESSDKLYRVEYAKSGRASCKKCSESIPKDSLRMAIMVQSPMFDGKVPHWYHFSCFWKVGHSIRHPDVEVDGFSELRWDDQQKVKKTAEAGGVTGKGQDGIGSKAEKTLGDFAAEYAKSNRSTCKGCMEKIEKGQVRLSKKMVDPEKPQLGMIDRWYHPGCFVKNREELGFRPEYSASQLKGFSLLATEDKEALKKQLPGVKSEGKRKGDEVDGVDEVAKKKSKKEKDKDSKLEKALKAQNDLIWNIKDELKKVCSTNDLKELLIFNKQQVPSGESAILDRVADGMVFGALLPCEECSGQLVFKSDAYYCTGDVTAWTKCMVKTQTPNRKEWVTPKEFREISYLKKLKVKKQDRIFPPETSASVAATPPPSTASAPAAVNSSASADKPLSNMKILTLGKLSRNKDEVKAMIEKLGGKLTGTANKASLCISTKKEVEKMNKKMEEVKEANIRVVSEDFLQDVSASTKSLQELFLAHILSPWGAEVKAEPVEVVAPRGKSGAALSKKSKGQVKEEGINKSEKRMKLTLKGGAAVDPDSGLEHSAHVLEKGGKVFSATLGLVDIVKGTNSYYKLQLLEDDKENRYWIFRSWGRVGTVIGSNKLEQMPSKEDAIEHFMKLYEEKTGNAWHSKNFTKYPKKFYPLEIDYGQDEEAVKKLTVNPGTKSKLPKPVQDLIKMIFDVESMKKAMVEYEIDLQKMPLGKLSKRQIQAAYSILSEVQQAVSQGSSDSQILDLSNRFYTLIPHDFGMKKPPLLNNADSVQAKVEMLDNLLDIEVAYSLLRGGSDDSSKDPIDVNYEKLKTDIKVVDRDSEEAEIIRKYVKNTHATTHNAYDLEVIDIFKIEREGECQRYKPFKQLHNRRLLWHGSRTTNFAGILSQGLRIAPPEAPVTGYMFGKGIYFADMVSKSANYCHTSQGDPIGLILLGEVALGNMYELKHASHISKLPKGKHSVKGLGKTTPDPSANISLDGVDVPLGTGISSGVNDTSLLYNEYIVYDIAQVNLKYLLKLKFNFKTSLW

`NNC(=O)CNC(=O)COc1cc(Cl)c(Cl)cc1Cl` [I, N-(2-hydrazineyl-2-oxoethyl)-2-(2.4.5-trichlorophenoxy) acetamide] was tested, and the IC50 was 1.52 nM.
